Experimental data reported in ChEMBL document CHEMBL1201862, “PubChem BioAssay data set” (2004).
The source made the active and inactive calls.

What was measured:
Aminopeptidase N = target: T1, Aminopeptidase N (Plasmodium falciparum FcB1/Columbia, UniProt O96935); assay: malaria alanyl aminopeptidase activity blockers – biochemical, fluorogenic H-Leu-NHMec substrate, 1536-well (AID 1445); parameters: species or system Plasmodium falciparum 3D7, 3D7
T1 sequence (O96935 whole entry): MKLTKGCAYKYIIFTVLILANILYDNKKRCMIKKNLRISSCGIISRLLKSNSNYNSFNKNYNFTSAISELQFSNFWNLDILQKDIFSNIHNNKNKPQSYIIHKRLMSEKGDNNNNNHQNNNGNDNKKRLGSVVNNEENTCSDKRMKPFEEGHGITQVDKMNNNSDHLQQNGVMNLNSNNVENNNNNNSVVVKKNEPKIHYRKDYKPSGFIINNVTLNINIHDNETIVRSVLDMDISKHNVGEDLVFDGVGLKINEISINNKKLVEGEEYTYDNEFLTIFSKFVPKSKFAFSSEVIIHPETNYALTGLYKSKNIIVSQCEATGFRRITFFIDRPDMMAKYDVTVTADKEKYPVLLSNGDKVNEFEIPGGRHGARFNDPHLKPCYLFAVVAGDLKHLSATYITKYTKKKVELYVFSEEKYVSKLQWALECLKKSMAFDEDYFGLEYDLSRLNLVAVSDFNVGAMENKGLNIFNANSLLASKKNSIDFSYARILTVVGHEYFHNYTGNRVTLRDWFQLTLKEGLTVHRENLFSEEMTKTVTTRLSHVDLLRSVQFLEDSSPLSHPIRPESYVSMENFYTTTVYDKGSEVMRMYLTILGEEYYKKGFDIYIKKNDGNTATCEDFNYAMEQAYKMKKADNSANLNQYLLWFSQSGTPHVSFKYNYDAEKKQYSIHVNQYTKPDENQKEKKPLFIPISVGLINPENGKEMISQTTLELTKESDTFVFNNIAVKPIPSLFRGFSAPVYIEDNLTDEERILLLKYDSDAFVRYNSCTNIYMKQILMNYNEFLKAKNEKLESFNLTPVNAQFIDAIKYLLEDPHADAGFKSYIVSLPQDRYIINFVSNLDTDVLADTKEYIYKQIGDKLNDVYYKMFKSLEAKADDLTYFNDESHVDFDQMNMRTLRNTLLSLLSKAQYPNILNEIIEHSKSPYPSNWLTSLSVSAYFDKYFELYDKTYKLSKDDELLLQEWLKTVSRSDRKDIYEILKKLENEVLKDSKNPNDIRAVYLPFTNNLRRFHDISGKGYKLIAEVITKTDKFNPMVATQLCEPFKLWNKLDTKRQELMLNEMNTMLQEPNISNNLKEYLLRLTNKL

[1] = blockers of HIV-1 envelope-mediated cell-cell fusion – cherry-pick, dose response (AID 652057); assay type: functional, cell-based
[2] = blockers of HIV-1 ZM109 envelope-driven cell-cell fusion – HeLa effector, CEM target cells, luciferase, cherry-pick, dose response (AID 652058); assay type: functional, cell-based;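 also: luciferase signal from HIV-1 Env mediated cell-cell fusion of effector and target cells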
Paired box protein Pax-8 = Paired box protein Pax-8 (Homo sapiens, UniProt Q06710); assay: PAX8 transcriptional activity inhibition in RMG-I – RMG-I cells, luciferase, cherry-pick, dose response (AID 687027); assay type: functional, cell-based;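 also: luciferase reporter driven by Pax8 target thyroperoxidase promoter measured by SteadyGlo luminescence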
Chain of Paired box protein Pax-8 (Q06710 whole entry, the tested form may be a part): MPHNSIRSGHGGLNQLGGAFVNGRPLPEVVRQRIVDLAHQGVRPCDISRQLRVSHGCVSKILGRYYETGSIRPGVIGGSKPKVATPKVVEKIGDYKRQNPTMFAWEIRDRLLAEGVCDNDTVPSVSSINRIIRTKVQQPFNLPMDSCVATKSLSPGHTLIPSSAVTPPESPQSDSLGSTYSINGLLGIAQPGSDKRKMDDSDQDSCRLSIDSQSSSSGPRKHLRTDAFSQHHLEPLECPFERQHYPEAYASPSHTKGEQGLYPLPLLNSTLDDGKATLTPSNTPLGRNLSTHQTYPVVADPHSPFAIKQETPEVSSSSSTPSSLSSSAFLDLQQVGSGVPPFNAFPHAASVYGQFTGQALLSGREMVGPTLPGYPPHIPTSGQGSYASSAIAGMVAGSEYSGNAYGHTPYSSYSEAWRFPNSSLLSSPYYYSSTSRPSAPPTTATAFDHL

[3] = HIV-1 AD8 envelope cell-cell fusion blockers – cherry-pick, dose response (AID 652062); assay type: functional, cell-based;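 also: luciferase signal from cell-cell fusion driven by HIV-1 clade B AD8 Env; potency is for inhibitors of fusion seen as a drop in luminescence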
[4] = target: T2, DNA repair protein RAD52 homolog (Homo sapiens, UniProt P43351); assay type: functional, biochemical
T2 sequence (P43351 whole entry): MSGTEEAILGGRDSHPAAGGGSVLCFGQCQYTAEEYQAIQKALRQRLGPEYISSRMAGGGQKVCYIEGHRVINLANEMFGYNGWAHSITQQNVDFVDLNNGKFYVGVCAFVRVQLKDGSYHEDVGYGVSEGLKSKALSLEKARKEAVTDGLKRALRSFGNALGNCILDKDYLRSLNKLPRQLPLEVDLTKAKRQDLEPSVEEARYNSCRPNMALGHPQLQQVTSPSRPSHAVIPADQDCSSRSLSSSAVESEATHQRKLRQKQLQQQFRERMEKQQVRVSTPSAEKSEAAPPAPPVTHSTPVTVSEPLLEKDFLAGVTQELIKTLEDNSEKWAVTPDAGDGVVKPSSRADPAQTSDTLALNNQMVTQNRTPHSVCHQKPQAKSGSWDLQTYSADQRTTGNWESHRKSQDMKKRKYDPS

[5] = NIH-3T3 fibroblast cytotoxicity, dose response, cytotoxicity control, cell-based, fluorescence, Alamar Blue, secondary assay (AID 2327); assay type: functional;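 also: NIH-3T3 mouse fibroblasts cultured with fluconazole at 8 µg/mL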
[6] = fluconazole-exposed Candida albicans growth modulators – fluorescence, retest, confirmation (AID 2467); assay type: functional, cell-based
[7] = reduction of Shn3 3'UTR-driven luciferase in osteoblasts – cell-based, Clone20 osteoblasts, firefly luciferase, cherry-picked, dose response (AID 624132); assay type: functional;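 also: firefly luciferase luminescence from reporter carrying the Shn3 3'UTR in osteoblasts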
[8] = loss of viability in HepG2 cells – cell-based, CellTiter-Glo, cherry-picked, cytotoxicity control for Shn3 inhibitor project, dose response (AID 624134); assay type: functional
[9] = non-specific 3'UTR reporter inhibition in Clone20-Shn3RL – cell-based, Renilla luciferase, cherry-picked, counter-screen for Shn3 inhibitor project, dose response (AID 624133); assay type: functional
[10] = target: T3, Ubiquitin-conjugating enzyme E2 N (Homo sapiens, UniProt P61088); assay type: functional;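 also: Dose-response confirmation in a TR-FRET assay detecting UBC13-driven polyubiquitin chain formation, inhibition measured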
T3 sequence (P61088 whole entry): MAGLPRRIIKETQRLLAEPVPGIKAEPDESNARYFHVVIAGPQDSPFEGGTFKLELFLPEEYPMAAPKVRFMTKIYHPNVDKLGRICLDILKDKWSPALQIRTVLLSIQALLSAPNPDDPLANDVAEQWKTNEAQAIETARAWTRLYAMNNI

[11] = P. falciparum Dd2 growth inhibitors, dose response, SYBR Green, cherry-picked samples (AID 1159567); assay type: functional, cell-based
[12] = system: Streptococcus sp. 'group A'; assay: Streptococcus pyogenes SK(-)GAS viability under kanamycin – luminescence, BacTiterGlo, confirmation, counter-screen for streptokinase expression inhibitor project, dose response (AID 1900); assay type: functional, organism-based
[13] = Trypanosoma cruzi growth suppression in host cells – NIH3T3 host cells, beta-gal luminescence, confirmation (AID 2044); assay type: functional, cell-based;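 also: intracellular parasites grown in NIH/3T3 mouse fibroblasts as host cells; luminescent beta-galactosidase reporter signal from transgenic T. cruzi replicating inside host cells; inhibitors lower the luminescence signal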
[14] = NIH3T3 cell viability loss – ATP luminescence, mouse fibroblasts, counter-screen, dose response (AID 2010); assay type: functional, cell-based;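 also: cells exposed to compound for about 90 hours before reading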
Streptococcus = assay: GAS UMAA2166 growth inhibition – luminescence, BacTiterGlo, counter-screen for streptokinase expression inhibitor project, dose response (AID 1915); assay type: functional, organism-based;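 also: potency for reduction of bacterial viability or growth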
INS1 = assay: INS-1E survival protection against cytokine death – cell-based, luminescence, retest, dose response (AID 449756); assay type: functional; settings: Rattus norvegicus;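 also: cell death triggered by IL-1 beta plus TNF-alpha plus IFN-gamma mixture; protective hits raise ATP signal compared with cytokine alone wells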
[15] = target: Induced myeloid leukemia cell differentiation protein Mcl-1 (Homo sapiens, UniProt Q07820); assay type: functional
Chain of Induced myeloid leukemia cell differentiation protein Mcl-1 (Q07820 whole entry): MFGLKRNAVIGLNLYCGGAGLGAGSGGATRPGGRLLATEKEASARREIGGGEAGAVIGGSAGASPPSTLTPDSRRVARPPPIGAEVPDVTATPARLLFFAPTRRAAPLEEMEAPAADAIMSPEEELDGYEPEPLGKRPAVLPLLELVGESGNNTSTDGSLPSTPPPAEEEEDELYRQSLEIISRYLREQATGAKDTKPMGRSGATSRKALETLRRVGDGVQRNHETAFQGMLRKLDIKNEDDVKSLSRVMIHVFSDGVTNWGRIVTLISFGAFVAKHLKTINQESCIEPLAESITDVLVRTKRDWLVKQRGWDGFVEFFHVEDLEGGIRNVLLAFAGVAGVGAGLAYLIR

Cytochrome P450 2C19 = Cytochrome P450 2C19 (Homo sapiens, UniProt P33261); assay: Cytochrome panel assay with activity outcomes. Panel member name: p450-cyp2c19 Compounds with AC50 equal or less than 10 uM are considered active; assay type: functional; settings: read-out: AC50
Chain of Cytochrome P450 2C19 (P33261 whole entry): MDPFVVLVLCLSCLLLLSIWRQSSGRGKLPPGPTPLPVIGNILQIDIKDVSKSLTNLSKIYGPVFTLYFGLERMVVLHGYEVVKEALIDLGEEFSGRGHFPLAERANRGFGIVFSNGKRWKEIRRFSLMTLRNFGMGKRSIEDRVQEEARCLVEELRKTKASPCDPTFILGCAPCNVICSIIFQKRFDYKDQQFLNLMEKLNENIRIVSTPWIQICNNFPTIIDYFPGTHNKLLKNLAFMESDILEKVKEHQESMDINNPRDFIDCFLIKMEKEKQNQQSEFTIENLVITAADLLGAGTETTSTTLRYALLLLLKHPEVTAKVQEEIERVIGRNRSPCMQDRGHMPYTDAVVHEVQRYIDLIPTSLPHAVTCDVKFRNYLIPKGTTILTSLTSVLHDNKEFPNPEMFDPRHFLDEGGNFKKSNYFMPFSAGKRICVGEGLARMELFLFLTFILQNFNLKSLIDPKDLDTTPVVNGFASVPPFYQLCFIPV

[16] = viability of PTEN-deleted HCT116 cells – cell-based, HCT116 PTEN knockout, dose response (AID 1047); assay type: functional;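 also: HCT116 colon tumor cells with PTEN knocked out; cells exposed to compound for 60 hours before readout; potency for loss of cell viability measured by luminescence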
[17] = viability of HCT116 lacking mutant beta-catenin – cell-based, human colon tumor, dose response (AID 1045); assay type: functional;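 also: HCT116 colon tumor cells with beta catenin knocked out; cells exposed to compound for 60 hours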
Nonstructural protein 1 = Nonstructural protein 1 (Influenza A virus, UniProt Q194T2); assay type: functional, Influenza A virus (A/California/07/2009(H1N1))
Chain of Nonstructural protein 1 (Q194T2 whole entry): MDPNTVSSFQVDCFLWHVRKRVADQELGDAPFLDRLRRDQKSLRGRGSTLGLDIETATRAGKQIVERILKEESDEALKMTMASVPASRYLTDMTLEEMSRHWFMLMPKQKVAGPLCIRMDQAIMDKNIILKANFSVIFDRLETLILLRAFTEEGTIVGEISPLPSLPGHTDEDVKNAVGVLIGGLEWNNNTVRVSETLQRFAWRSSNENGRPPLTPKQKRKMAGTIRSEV

## CC(=O)Oc1ccc2c(C)c(CC(C)O)c(=O)oc2c1 (stereo not drawn)
Aminopeptidase N
  IC50: 62.4 µM (active)

## CC(C)CC#Cc1ccc2c(c1)O[C@H](CN(C)S(=O)(=O)c1ccc(F)cc1)[C@H](C)CN([C@@H](C)CO)S2(=O)=O
[1]
  AC50: 26.6 µM (active)
[2]
  AC50: 20.8 µM (active)
Paired box protein Pax-8
  AC50: 9.6 µM (active)
[3]
  AC50: 23.7 µM (active)

## CCN(CC)CCNC(=O)c1nn(-c2ccc(Cl)cc2)c2c1CCc1cc(OC)ccc1-2
[4]
  AC50: 16.8 µM (active)

## CC(C)c1ccc(OCC(=O)Nc2cccc(C(=O)Nc3ccccc3C(=O)O)c2)cc1
[5]
  EC50: 16.9 µM (inconclusive)
[6]
  EC50: 1.9 µM (active)

## C/N=C(\C[N+](=O)[O-])NCCSCc1ccc(CN(C)C)o1
[4]
  AC50: 12.5 µM (active)

## CCCS(=O)(=O)Nc1ccc(Nc2c3ccccc3nc3ccccc23)c(OC)c1
[7]
  AC50: 3.39 µM (active)
[8]
  AC50: 20.1 µM (active)
[9]
  AC50: 1.03 µM (active)
[4]
  AC50: 3.15 µM (active)

## C#CCOCCOCCOCCNc1nc(N2CCOCC2)nc(N2CCN(C(=O)CCCCCCCCCCNC(=O)[C@@H]([C@H](C)CC)n3cc(CCCCCN)nn3)CC2)n1
[10]
  IC50: > 20 µM (inactive)

## Cc1nnc(NC(=O)c2ccc3ccccc3n2)s1
Aminopeptidase N
  IC50: 36.8 µM (active)

## COc1ccc(S(=O)(=O)N(C)C[C@H]2Oc3ncc(-c4ccncc4)cc3C(=O)N([C@H](C)CO)C[C@@H]2C)cc1
[11]
  AC50: 6.55 µM (active)

## COc1ccccc1C(NC(C)=O)c1cc(Cl)c2cccnc2c1O (stereo not drawn)
[12]
  EC50: 2.9 µM (active)
[13]
  EC50: 647 nM (active)
[14]
  EC50: 2.85 µM (active)
Streptococcus
  EC50: 2.95 µM (active)
INS1
  AC50: 1.38 µM (active)
[7]
  AC50: 2.56 µM (active)
[8]
  AC50: 2.3 µM (active)
[9]
  AC50: 1.27 µM (active)

## O=C(CN1C(=O)C2C3CC(C(Br)C3Br)C2C1=O)Nc1ccc(C(=O)O)cc1 (stereo not drawn)
Aminopeptidase N
  IC50: 62.5 µM (active)

## CCCCCc1nc2c(O)nc3ccccc3c2o1
[15]
  IC50: 28.3 µM (not active)
Cytochrome P450 2C19
  AC50: 3.98 µM (inconclusive)

## O=C1Nc2ccccc2S/C1=C/NCc1ccccc1Cl
Aminopeptidase N
  IC50: 5.63 µM (active)

## CN1CCN(Cc2nc3ccccc3c(=O)n2Cc2nc(-c3ccc([N+](=O)[O-])cc3)cs2)CC1
[16]
  EC50: 4.88 µM (active)
[17]
  EC50: 7.87 µM (active)
[10]
  IC50: > 20 µM (inactive)

## O=C(C[n+]1ccccc1)NN=Cc1cc(Br)ccc1O
Nonstructural protein 1
  IC50: 2.96 µM (active)

## Cc1c(Cc2ccccc2)c(=O)oc2c(CN(C)C)c(O)c(Cl)cc12
Aminopeptidase N
  IC50: 33 µM (active)
